Laboratory results reported in US11873291B2, “Quinoline cGAS antagonist compounds” (ImmuneSensor Therapeutics, Inc., priority 2020, dated 2024).

Molecular target: T1, recombinant human cGAS (aa147-522) (Homo sapiens, UniProt Q8N884)
T1 construct: recombinant human cGAS (aa147-522); His6-SUMO (cleaved yes); made in house; host or cells: E. coli BL21/pLys
Test: In vitro inhibition assay of cGAS activity (ATP consumption, KinaseGlo Max)
Format: biochemical
Settings: Table 2, read-out: cGAS Inhibition Results IC50
Protocol: Expression and Purification of Recombinant cGAS Protein: cDNA encoding full-length or amino acids […] of human cGAS was inserted into a modified pET28a vector containing an in-frame His6-SUMO tag. The E. coli strain BL21/pLys harboring the plasmid was induced with 0.5 mM IPTG at 18° C. overnight. His6-SUMO tag was removed by a SUMO protease digestion following purification of the His6-SUMO-cGAS as described previously (Sun et al, 2013, Science 339, 786).
In vitro inhibition assay of cGAS activity: A 60 μL mixture containing 20 mM Tris-Cl, pH 7.5, 5 mM MgCl2, 0.2 mg/mL BSA, 0.01 mg/mL Herring testis DNA, 6.6 μM ATP, 0.1 mM GTP, 1.5 μg/mL of recombinant human cGAS (aa147-522) and serial dilutions of a test compound in DMSO was added to a 96-well plate and incubated at 37° C. for 20 minutes. At the end of reaction, 40 μL of KinaseGlo Max (Promega) was added and chemiluminescence was measured with a luminometer. Inhibitory effect of a compound is evaluated by plotting percentage of ATP consumption against logarithm of compound concentrations. IC50 value was calculated using GraphPad Prism 8 (GraphPad Software, Inc.).
The letter codes for cGAS IC50 include: A (<2 μM); B (2-30 μM); C (>30 μM).

T1 sequence (Q8N884 147-522): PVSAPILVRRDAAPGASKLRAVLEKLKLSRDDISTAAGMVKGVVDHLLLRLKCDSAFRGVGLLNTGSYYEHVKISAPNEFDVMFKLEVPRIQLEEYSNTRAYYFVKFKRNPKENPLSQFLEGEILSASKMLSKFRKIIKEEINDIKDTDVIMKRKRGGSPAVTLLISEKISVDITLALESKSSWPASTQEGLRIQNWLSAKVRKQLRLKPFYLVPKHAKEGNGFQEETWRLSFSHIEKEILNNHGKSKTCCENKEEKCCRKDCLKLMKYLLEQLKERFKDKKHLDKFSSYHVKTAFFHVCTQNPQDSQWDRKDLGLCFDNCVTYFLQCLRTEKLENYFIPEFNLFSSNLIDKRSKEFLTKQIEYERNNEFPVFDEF

| SMILES | IC50 [nM] |
| --- | --- |
| O=[PH](O)OCCCCNc1cc(-c2cn[nH]c2)c2ccc(Cl)c(Cl)c2n1 [I-258] | < 2000 |
| NS(=O)(=O)CCNc1cc(-c2cn[nH]c2)c2c(Cl)cc(Cl)cc2n1 [I-263] | > 30000 |
| Fc1ccc(Cc2cc(-n3ccnc3)c3ccc(Br)cc3n2)cc1 [I-275] | > 30000 |
| Cc1cc(NC2CCCCC2C(=O)O)c2ccc(Cl)c(Cl)c2n1 (centres unmarked) [I-316] | > 30000 |
| COc1ccc(-c2cc(-n3ccnc3)c3ccc(Cl)c(Cl)c3n2)cc1C#N [I-40] | > 30000 |
| Clc1ccc2c(-c3ccn[nH]3)cc(-c3ccccc3)nc2c1 [I-68] | > 30000 |
| O=C(O)CNc1cc(-c2cn[nH]c2)c2ccc(Cl)c(Cl)c2n1 [I-177, (7,8-dichloro-4-(1H-pyrazol-4-yl)quinolin-2-yl)glycine] | 2000 to 30000 |
| O=C(O)CC1CCCN(c2cc(-n3ccnc3)c3ccc(Cl)cc3n2)C1 (centres unmarked) [I-123, 2-(1-(7-chloro-4-(1H-imidazol-1-yl)quinolin-2-yl)piperidin-3-yl)acetic acid] | 2000 to 30000 |
| O=C1CC[C@@H](CO)N1c1cc(-n2ccnc2)c2ccc(Cl)c(Cl)c2n1 [I-376] | > 30000 |
| Clc1ccc2c(-n3ccnc3)cc(-c3ccc4nn[nH]c4c3)nc2c1 [I-35] | 2000 to 30000 |
| O=C(O)COc1c(Br)ccc2c(-n3ccnc3)cc(-c3ccccc3)nc12 [I-379, 2-((7-bromo-4-(1H-imidazol-1-yl)-2-phenylquinolin-8-yl)oxy)acetic acid] | 2000 to 30000 |
| Clc1ccc2c(-n3ccnc3)cc(N3CCOCC3)nc2c1Cl [I-95] | 2000 to 30000 |
| CC(=O)OCC(=O)N1CCOC(CNc2cc(-c3cn[nH]c3)c3ccc(Cl)c(Cl)c3n2)C1 (centres unmarked) [I-400] | 2000 to 30000 |
| Clc1ccc2c(-n3ccnc3)cc(-c3ccccc3)nc2c1 [I-1] | 2000 to 30000 |
| CN(CC(=O)O)c1cc(-n2ccnc2)c2ccc(Cl)cc2n1 [I-167] | < 2000 |
| CN(CCS(N)(=O)=O)c1cc(-n2ccnc2)c2ccc(Cl)c(Cl)c2n1 [I-204] | < 2000 |
| Cn1cc(S(=O)(=O)NC2CCCN(c3cc(-n4ccnc4)c4ccc(Cl)cc4n3)C2)cn1 (centres unmarked) [I-109] | > 30000 |
| Cc1cc(N2CCS(=O)(=O)CC2)c2ccc(Cl)c(Cl)c2n1 [I-303] | > 30000 |
| COC(=O)[C@@H]1C[C@H](O)CN1c1cc(-c2cn[nH]c2)c2ccc(Cl)c(Cl)c2n1 [I-432] | 2000 to 30000 |
| CN(CCO)c1cc(-n2ccnc2)c2ccc(Cl)c(Cl)c2n1 [I-238] | < 2000 |

| SMILES | IC50 [nM] |
| --- | --- |
| COC(=O)c1cccc(-c2cc(-n3ccnc3)c3ccc(Cl)cc3n2)c1 [I-5] | 2000 to 30000 |
| C[C@@H](CO)N(C)c1cc(-n2ccnc2)c2ccc(Cl)c(Cl)c2n1 [I-241] | < 2000 |
| CN(CCC(=O)NCCC(=O)O)c1cc(-c2cn[nH]c2)c2ccc(Cl)c(Cl)c2n1 [I-320] | < 2000 |
| C[C@@H](CC(=O)O)Nc1cc(-n2ccnc2)c2ccc(Cl)c(Cl)c2n1 [I-186] | < 2000 |
| O=C(O)C1CN(c2cc(-n3ccnc3)c3ccc(Cl)c(Cl)c3n2)CCN1 (centres unmarked) [I-79, 4-(7,8-Dichloro-4-(1H-imidazol-1-yl)quinolin-2-yl)piperazine-2-carboxylic acid] | < 2000 |
| O=C(O)[C@H]1CCCN(c2cc(-n3ccnc3)c3ccc(Cl)cc3n2)C1 [I-331] | 2000 to 30000 |
| OCCNc1cc(-c2cn[nH]c2)nc2c(Cl)c(Cl)ccc12 [I-289, 2-((7,8-dichloro-2-(1H-pyrazol-4-yl)quinolin-4-yl)amino)ethan-1-ol] | 2000 to 30000 |
| O=C(O)C1CCC=C(c2cc(-c3cn[nH]c3)c3ccc(Cl)c(Cl)c3n2)C1 (centres unmarked) [I-273, 3-(7,8-dichloro-4-(1H-pyrazol-4-yl)quinolin-2-yl)cyclohex-3-ene-1-carboxylic acid] | 2000 to 30000 |
| O=C(O)c1ccccc1S(=O)(=O)NC[C@@H]1CCCN1c1cc(-n2ccnc2)c2ccc(Cl)c(Cl)c2n1 [I-391] | < 2000 |
| CN(CCC(=O)O)C(=O)C[C@@H]1CCCN1c1cc(-n2ccnc2)c2ccc(Cl)c(Cl)c2n1 [I-340] | < 2000 |
| O=C(O)[C@@H]1CN(c2cc(-n3ccnc3)c3ccc(Cl)cc3n2)CC[C@H]1O [I-130] | 2000 to 30000 |
| O=C1NCCC1Nc1cc(-n2ccnc2)c2ccc(Cl)cc2n1 (centres unmarked) [I-367] | > 30000 |
| CC(O)CN(C)c1cc(-n2ccnc2)c2ccc(Cl)c(Cl)c2n1 (centres unmarked) [I-243] | < 2000 |
| O=C(O)[C@@H]1C[C@@H](Oc2ccccc2)CN1c1cc(-c2cn[nH]c2)c2ccc(Cl)c(Cl)c2n1 [I-361] | 2000 to 30000 |
| COc1c(C(=O)O)cccc1-c1cc(-n2ccnc2)c2ccc(Cl)c(Cl)c2n1 [I-45] | 2000 to 30000 |
| O=C(O)c1cc(-c2cc(-n3ccnc3)c3ccc(Cl)cc3n2)cs1 [I-55] | < 2000 |
| Cc1cc(NCCC(=O)O)c2ccc(Cl)c(Cl)c2n1 [I-309] | > 30000 |
| OCC1COCCN1c1cc(-n2ccnc2)c2ccc(Cl)c(Cl)c2n1 (centres unmarked) [I-97] | 2000 to 30000 |
| O=C(O)c1cc(O)cc(-c2cc(-n3ccnc3)c3ccc(Cl)cc3n2)c1 [I-26, 3-(7-chloro-4-(1H-imidazol-1-yl)quinolin-2-yl)-5-hydroxybenzoic acid] | < 2000 |
| COc1ccc2c(-n3ccnc3)ccnc2c1 [I-417] | > 30000 |

Same assay, conditions: Table 3, read-out: cGAS Inhibition Results IC50

| SMILES | IC50 [nM] |
| --- | --- |
| COC(=O)[C@@H]1[C@H](OC)CCN1c1cc(-n2ccnc2)c2ccc(Cl)c(Cl)c2n1 [I-647] | 2000 to 30000 |
| CN(CCS(=O)(=O)NC1CCC(C(=O)O)C1)c1cc(-n2ccnc2)c2ccc(Cl)c(Cl)c2n1 (centres unmarked) [I-625] | < 2000 |
| O=C(O)C1CCCCN1C(=O)C[C@@H]1CCCN1c1cc(-n2ccnc2)c2ccc(Cl)c(Cl)c2n1 (some centres unmarked) [I-533] | < 2000 |
| COC(=O)c1ccc(S(=O)(=O)NCCN(C)c2cc(-n3ccnc3)c3ccc(Cl)c(Cl)c3n2)cc1 [I-611] | > 30000 |
| C[C@]1(C(=O)O)CCCN1c1cc(-n2ccnc2)c2ccc(Cl)c(Cl)c2n1 [I-456] | > 30000 |
| O=C(O)CCS(=O)(=O)N[C@@H]1C[C@@H](C(=O)O)N(c2cc(-n3ccnc3)c3ccc(Cl)c(Cl)c3n2)C1 [I-512] | < 2000 |
| O=C(O)[C@H]1[C@H](O)CCN1c1cc(-n2ccnc2)c2ccc(Cl)c(Cl)c2n1 [I-498] | 2000 to 30000 |
| CC(=O)O[C@H]1CCN(c2cc(-n3ccnc3)c3ccc(Cl)c(Cl)c3n2)[C@@H]1C(=O)O [I-643, (2S,3S)-3-acetoxy-1-(7,8-dichloro-4-(1H-imidazol-1-yl)quinolin-2-yl)pyrrolidine-2-carboxylic acid] | < 2000 |
| COC(=O)[C@@H]1C[C@H](OCCC(=O)O)CN1c1cc(-n2ccnc2)c2ccc(Cl)c(Cl)c2n1 [I-871] | 2000 to 30000 |
| O=C(O)CCOCC(CO)Nc1cc(-n2ccnc2)c2ccc(Cl)c(Cl)c2n1 (centres unmarked) [I-873] | < 2000 |
| FC(F)(F)[C@@H]1CCCN1c1cc(-n2ccnc2)c2ccc(Cl)c(Cl)c2n1 [I-496] | 2000 to 30000 |
| C[C@H]1CCN(c2cc(-n3ccnc3)c3ccc(Cl)c(Cl)c3n2)[C@@H]1C(=O)O [I-482] | < 2000 |
| O=C(O)[C@@H]1C[C@@H](OC(=O)N2CCOCC2)CN1c1cc(-n2ccnc2)c2ccc(Cl)c(Cl)c2n1 [I-606, (2S,4R)-1-(7,8-dichloro-4-(1H-imidazol-1-yl)quinolin-2-yl)-4-((morpholine-4-carbonyl)oxy)pyrrolidine-2-carboxylic acid] | 2000 to 30000 |
| O=C(O)C1CCN(C(=O)[C@@H]2CCCN2c2cc(-n3ccnc3)c3ccc(Cl)c(Cl)c3n2)CC1 [I-548] | < 2000 |
| O=C(O)[C@@H]1SCCN1c1cc(-n2ccnc2)c2ccc(Cl)c(Cl)c2n1 [I-486] | < 2000 |
| O=C(O)CS(=O)(=O)NC[C@@H]1CCCN1c1cc(-n2ccnc2)c2ccc(Cl)c(Cl)c2n1 [I-639] | < 2000 |
